Measured values published in patent publication US10000566B2, “Anti-CD33 antibodies and methods for treatment of acute myeloid leukemia using the same” (IMMUNOGEN INC., priority 2002, dated 2018).
“Also recorded” adds a separate entry of the source.

How the values were obtained:
[1] = in vivo; cited from earlier work
[2] = system: large HL-60 tumors; experiment: Large HL-60 tumor xenograft model in SCID mice; assay type: in vivo; conditions: for toxicity of higher drug doses: not shown; for effect on tumor growth: standard chemotherapeutic agents, tumor volume >400 mm^3
Method: (§1) Subcutaneous tumor model—HL-60 human promyelocytic leukemia cells (5×10^6 cells in 0.1 mL) were subcutaneously inoculated into the right flank of female SCID mice. Mice were treated by intravenous injection into a lateral tail vein starting when tumors reached 100 mm^3 in size (400 mm^3 in large tumor model). Tumor size and mouse body weight were measured twice per week. Survival model—HL-60 cells (5×10^6 cells in 0.1 mL) were intravenously injected into the lateral tail vein of female SCID mice. Eleven days after tumor cell injection treatment was started. Mice were checked every day for moribund, tumor mass, or death. Body weight was measured twice per week.
Tumors were allowed to grow to a tumor volume of >400 mm^3 prior to the initiation of treatment. In addition, a comparison of the activity of My9-6-DM1 with standard chemotherapeutic drugs was conducted. […]

[3] = system: human HL-60 tumor cell xenografts; experiment: Subcutaneous HL-60 tumor xenograft model in SCID mice; assay type: in vivo
Method: as §1
The efficacy of My9-6-DM1 in vivo was determined using SCID mice bearing human HL-60 tumor cell xenografts. HL-60 cells were injected subcutaneously and tumors were allowed to grow to an average size of 100 mm^3. Dosage is expressed as mg antibody in the conjugate, which corresponds to a DM1 dose of approximately 15 μg DM1 per mg of antibody. Tumor volume was measured as an indication of treatment efficacy and mouse body weight was monitored to indicate toxicity due to treatment.

[4] = system: HL-60 cells injected intravenously; experiment: HL-60 cell mouse survival model; assay type: in vivo, SCID mice; conditions: treatment starting 11 days after cell injection
Method: FIGS. 24A & B show anti-tumor efficacy of My9-6-DM1 compared with Gentuzumab ozogamicin and standard chemotherapy in an HL-60 survival model. HL-60 cells were intravenously injected into SCID mice. Indicated treatments were started 11 days following injection of cells. Treatments were i.v. daily ×5 except for Gentuzumab ozogamicin (Q4D×3).
as §1
While the efficacy of My9-6-DM1 in the tumor xenograft model is striking, it is also of interest to look at the activity of the conjugate in a mouse survival model where HL-60 cells are injected directly into a mouse tail vein. In this model, control mice die between 30 and 50 days after cell injection. […] However, even in this model, standard chemotherapy provided no significant survival enhancement (FIG. 24B).

[5] = biological target: T1, CD33 on CD33-positive U-937 cells (Homo sapiens, UniProt P20138); experiment: Competition binding of 125I-labeled muMy9-6 to U-937 cells
T1 construct: endogenous in cells; host or cells: U-937 human histiocytic lymphoma cell line (ATCC CRL-1953.2)
T1 sequence (P20138 18-364): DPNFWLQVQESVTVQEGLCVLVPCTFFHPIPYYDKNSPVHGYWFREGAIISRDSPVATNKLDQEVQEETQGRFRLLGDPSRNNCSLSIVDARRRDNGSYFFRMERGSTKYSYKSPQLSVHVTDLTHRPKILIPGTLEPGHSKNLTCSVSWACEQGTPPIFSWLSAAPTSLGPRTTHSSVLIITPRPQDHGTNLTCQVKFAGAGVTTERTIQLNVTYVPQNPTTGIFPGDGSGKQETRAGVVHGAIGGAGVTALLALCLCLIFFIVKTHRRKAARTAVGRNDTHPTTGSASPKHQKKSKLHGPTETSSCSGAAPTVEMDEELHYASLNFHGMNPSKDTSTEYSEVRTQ
Method: The My9-6 antibody has further been functionally characterized and shown to bind with high affinity to CD33 on the surface of CD33-positive U-937 cells (FIG. 1). ^125I-labeled My9-6 binds to U-937 cells and it is competed off the cells by unlabeled My9-6 and the previously characterized anti-CD33 antibody My9 (BioGenex, cat. no. 267M).
To further ascertain its specificity for binding to the CD33 antigen, a competition binding experiment was performed between labeled muMy9-6 and the commercially available anti-CD33 antibody My9. The binding experiment was performed using the method described by Goldmacher et al. (1989, J. Cell. Physiol. 141, 222-234). Murine My9-6 antibody was radiolabeled with ^125I using the Iodo-gen technique (Fraker, P. J. and Speck, J. C., 1978, Biochem. Biophys. Res. Commun. 80, 849-857). A constant amount (3×10^−9 M) of ^125I-labeled muMy9-6 was mixed with increasing concentrations of non-radioactive antibody, either unlabeled muMy9-6 or unlabelled My9, and the mixtures were incubated with cells (1×10^6 cells per sample) at 4° C. for 30 min. […] The cell pellet was then removed by cutting the centrifuge tubes at the oil interface and was used to measure the cell-associated radioactivity on a gamma-counter (model RIAgamma 1274 from LKB). The cell-associated radioactivity measured was […] against the concentrations of the unlabelled, competing antibodies. […]

[6] = biological target: T2, CD33 on HL-60 membranes or whole cells (Homo sapiens, UniProt P20138); experiment: Direct binding assays on HL-60 membranes and HL-60 whole cells
T2 construct: endogenous in cells; host or cells: HL-60 human leukemic cell line (whole cells; plasma membranes prepared from HL-60)
T2 sequence (P20138 18-364): as above
Method: HL-60 cells were harvested from T75 flasks (NUNCLON™, cat. no. 153732), and centrifuged at about 300×g for five minutes in an Omnifuge RT tabletop centrifuge (Haereus Separations, Germany), at 4° C. The cells were resuspended at a density of 3×10^6 cells per mL in FACS buffer, comprised of 2% (v/v) goat serum (Sigma Chemical Co., St Louis, Mo.) in MEM Alpha Medium, supplemented with L-glutamine (Life Technologies, Grand Island, N.Y.). Using a multichannel pipetor, 3×10^5 cells were added to wells of a Falcon 96-well round bottom plate (cat. no. 3077) and then placed on ice. Using a Falcon 96-well flexible assay plate (cat. no. 353911), eleven twofold serial dilutions of each test or control article were prepared in duplicate in FACS buffer, from a starting concentration of 2×10^−8 M. Then, 100 μl of either test or control article was mixed with the cells. Control wells only received FACS buffer. The plate was incubated on ice for one hour, and then centrifuged for five minutes at 300× g, in a refrigerated centrifuge. Reagents were removed from the plate wells by quick inversion over a waste beaker containing 10% bleach. […] The assay plate was then analyzed on a FACScan flow cytometer interfaced with an automated 96-well sampling device (Becton Dickinson, Mountain View, Calif.). […]

calicheamicin
toxicity in pre-clinical models [1]: hepatotoxicity

CC(=O)[C@]1(O)Cc2c(O)c3c(c(O)c2[C@@H](O[C@H]2C[C@H](N)[C@H](O)[C@H](C)O2)C1)C(=O)c1ccccc1C3=O [idarubicin]
toxicity of higher drug doses [2]: profoundly toxic | effect on tumor growth [2]: little effect on tumor growth

COc1cc2cc(c1Cl)N(C)C(=O)C[C@H](OC(=O)[C@H](C)N(C)C(C)=O)[C@]1(C)O[C@H]1[C@H](C)[C@@H]1C[C@@](O)(NC(=O)O1)[C@H](OC)/C=C/C=C(\C)C2 [maytansine, reference compound]
mice that died two days after treatment ([3]; 350 μg/kg daily for 5 days): Three of 6 | delay in tumor growth ([3]; 350 μg/kg daily for 5 days, remaining 3 mice): approximately 10 days | effect on survival [4]: significant impact on mouse survival | mice that died shortly after the start of treatment [4]: 2 of 8

Nc1ccn([C@@H]2O[C@H](CO)[C@@H](O)[C@@H]2O)c(=O)n1 [Ara-C]
toxicity of higher drug doses [2]: profoundly toxic | effect on tumor growth [2]: little effect on tumor growth

My9-6: murine anti-CD33 monoclonal antibody, IgG1 kappa, hybridoma ATCC PTA-4786
competition binding curves against 125I-labeled muMy9-6 ([5]; 3×10^−9 M 125I-muMy9-6, U-937 cells, 4° C., 30 min): very similar competition binding curves | binding affinity / avidity for CD33 ([5]; CD33-positive U-937 cells): very similar binding avidities; also recorded: high affinity | effect on HL-60 tumor growth compared to vehicle control ([3]; antibody alone, dose not stated): no effect on HL-60 tumor growth | effect on tumor cell growth ([3]; antibody alone, even at 50 mg/kg): no effect on tumor cell growth | effect on tumor growth ([3]; unconjugated antibody 23 mg/kg daily for 5 days): no affect on tumor growth | effect on survival [4]: modest increase in survival

B1: V1.0: most human resurfaced version of My9-6, all ten human surface residues (antibody, V domains shown)
VH: QVQLQQPGAEVVKPGASVKMSCKASGYTFTSYYIHWIKQTPGQGLEWVGVIYPGNDDISYNQKFQGKATLTADKSSTTAYMQLSSLTSEDSAVYYCAREVRLRYFDVWGQGTTVTVSS
VL: EIVLTQSPGSLAVSPGERVTMSCKSSQSVFFSSSQKNYLAWYQQIPGQSPRLLIYWASTRESGVPDRFTGSGSGTDFTLTISSVQPEDLAIYYCHQYLSSRTFGQGTKLEIKR
binding affinity relative to wild type ([6]; HL-60 membranes and whole cells): near wild type binding affinities | KD value compared with murine My9-6 ([6]; HL-60 membranes or whole cells, numbers only in FIG. 17): fall within the experimental error of the KD value of murine My9-6
